Source: the supplement of paper PMC4862054

Tests used:
Conditions in all cases: incubation time: 72 h
HCC1937 [1] = test: normalised response (% of control), CellTox Green; higher = less cell death (100 = DMSO, 0 = benzethonium chloride kill control)
Method in brief: (§1)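 Plates were normalised with 0.1 % DMSO as 100 and a positive kill control as 0. Breast cancer cell lines in 20 µl suspension had been seeded into 384-well plates with compound at 5 concentrations in 10-fold steps over a compound-specific 10,000-fold range, incubated 72 h, and read for CellTox Green fluorescence (485/520 nm) followed by CellTiter-Glo luminescence. Each value is the normalised signal at a single concentration.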

CAL-120 [2] = test: as above
Method in brief: as §1

CAL-148 [3] = test: as above
Method in brief: as §1

MDA-MB-468 [4] = test: as above
Method in brief: as §1

CAL-85-1 [5] = test: as above
Method in brief: as §1

HDQ-P1 [6] = test: as above
Method in brief: as §1

DU-4475 [7] = test: as above
Method in brief: as §1

BT-549 [8] = test: as above
Method in brief: as §1

CAL-51 [9] = test: as above
Method in brief: as §1

HCC1599 [10] = test: as above
Method in brief: as §1

MCF-10A [11] = test: as above
Method in brief: as §1

MDA-MB-231 [12] = test: as above
Method in brief: as §1

HCC1143 [13] = test: as above
Method in brief: as §1

MDA-MB-436 [14] = test: as above
Method in brief: as §1

Hs578T [15] = test: as above
Method in brief: as §1

MFM-223 [16] = test: as above
Method in brief: as §1

BT-474 [17] = test: as above
Method in brief: as §1

MDA-MB-453 [18] = test: as above
Method in brief: as §1

HCC1937 [19] = test: normalised response (% of control), CellTiter-Glo; higher = more viable cells (100 = DMSO, 0 = benzethonium chloride kill control)
Method in brief: as §1

CAL-120 [20] = test: as above
Method in brief: as §1

CAL-148 [21] = test: as above
Method in brief: as §1

MDA-MB-468 [22] = test: as above
Method in brief: as §1

CAL-85-1 [23] = test: as above
Method in brief: as §1

HDQ-P1 [24] = test: as above
Method in brief: as §1

DU-4475 [25] = test: as above
Method in brief: as §1

BT-549 [26] = test: as above
Method in brief: as §1

CAL-51 [27] = test: as above
Method in brief: as §1

HCC1599 [28] = test: as above
Method in brief: as §1

MCF-10A [29] = test: as above
Method in brief: as §1

SK-BR-3 = test: as above
Method in brief: as §1

MDA-MB-231 [30] = test: as above
Method in brief: as §1

HCC1143 [31] = test: as above
Method in brief: as §1

MDA-MB-436 [32] = test: as above
Method in brief: as §1

Hs578T [33] = test: as above
Method in brief: as §1

MFM-223 [34] = test: as above
Method in brief: as §1

BT-474 [35] = test: as above
Method in brief: as §1

MDA-MB-453 [36] = test: as above
Method in brief: as §1

| Compound | normalised response (HCC1937 [1]) [%] | normalised response (CAL-120 [2]) [%] | normalised response (CAL-148 [3]) [%] | normalised response (MDA-MB-468 [4]) [%] | normalised response (CAL-85-1 [5]) [%] | normalised response (HDQ-P1 [6]) [%] | normalised response (DU-4475 [7]) [%] | normalised response (BT-549 [8]) [%] | normalised response (CAL-51 [9]) [%] | normalised response (HCC1599 [10]) [%] | normalised response (MCF-10A [11]) [%] | normalised response (MDA-MB-231 [12]) [%] | normalised response (HCC1143 [13]) [%] | normalised response (MDA-MB-436 [14]) [%] | normalised response (Hs578T [15]) [%] | normalised response (MFM-223 [16]) [%] | normalised response (BT-474 [17]) [%] | normalised response (MDA-MB-453 [18]) [%] | normalised response (HCC1937 [19]) [%] | normalised response (CAL-120 [20]) [%] | normalised response (CAL-148 [21]) [%] | normalised response (MDA-MB-468 [22]) [%] | normalised response (CAL-85-1 [23]) [%] | normalised response (HDQ-P1 [24]) [%] | normalised response (DU-4475 [25]) [%] | normalised response (BT-549 [26]) [%] | normalised response (CAL-51 [27]) [%] | normalised response (HCC1599 [28]) [%] | normalised response (MCF-10A [29]) [%] | normalised response (SK-BR-3) [%] | normalised response (MDA-MB-231 [30]) [%] | normalised response (HCC1143 [31]) [%] | normalised response (MDA-MB-436 [32]) [%] | normalised response (Hs578T [33]) [%] | normalised response (MFM-223 [34]) [%] | normalised response (BT-474 [35]) [%] | normalised response (MDA-MB-453 [36]) [%] |
| --- | --- | --- | --- | --- | --- | --- | --- | --- | --- | --- | --- | --- | --- | --- | --- | --- | --- | --- | --- | --- | --- | --- | --- | --- | --- | --- | --- | --- | --- | --- | --- | --- | --- | --- | --- | --- | --- |
| Cc1nc(C(=O)NCC(=O)O)c(O)c2ccc(Oc3ccccc3)cc12 [FG-4592] (100 nM) | 79.8 | 102 | 95.8 | 114 | 103 | 106 | 105 | 105 | 102 | 90.1 | 101 | 112 | 109 | 97 | 94.9 | 92.8 | 98.2 | 103 | 98 | 102 | 108 | 97.1 | 104 | 98.3 | 103 | 106 | 97.4 | 112 | 115 | 112 | 111 | 106 | 98.6 | 105 | 106 | 101 | 101 |
| CN(C)C(=N)NC(=N)N [Metformin] (1000 nM) | 93.4 | 96.5 | 95.7 | 61 | 97.9 | 70.7 | 91.6 | 70.4 | 71.1 | 95.2 | -3.22 | 63.5 | 85.4 | 71.8 | 105 | 101 | 92 | 91 | 93.2 | 104 | 102 | 90.3 | 97.7 | 98 | 88.4 | 103 | 65.9 | 95.9 | 77 | 81.9 | 94.1 | 102 | 108 | 102 | 83.2 | 96.3 | 84.3 |
| C=CCN(/C=C1/C(=O)O[C@H](COC)[C@@]2(C)C1=C(O)C(=O)C1=C2[C@H](OC(C)=O)C[C@]2(C)C(=O)CC[C@@H]12)CC=C [Sonolisib] (100 nM) | 121 | 101 | 98.6 | 112 | 106 | 63.5 | 106 | 108 | 102 | 115 | 72.8 | 110 | 117 | 107 | 73.7 | 109 | 96.5 | 106 | 99.7 | 109 | 116 | 105 | 109 | 102 | 105 | 106 | 85.2 | 104 | 108 | 107 | 107 | 105 | 106 | 94.7 | 107 | 106 | 102 |
| C/C(=C\c1csc(C)n1)[C@@H]1C[C@@H]2O[C@]2(C)CCC[C@H](C)[C@H](O)[C@@H](C)C(=O)C(C)(C)[C@@H](O)CC(=O)N1 [Ixabepilone] (10 nM) | 107 | 102 | 94.7 | 123 | 99 | 101 | 104 | 82.4 | 102 | 101 | 84.4 | 102 | 80.8 | 86.6 | 84 | 95.7 | 98.7 | 93.6 | 95.4 | 102 | 102 | 93.7 | 97.5 | 102 | 104 | 102 | 86 | 95.2 | 108 | 113 | 98.6 | 102 | 106 | 107 | 105 | 100 | 101 |
| CC[C@H](CO)Nc1nc(NCc2ccccc2)c2ncn(C(C)C)c2n1 [Seliciclib] (100 nM) | 118 | 98.4 | 108 | 102 | 92.4 | 105 | 101 | 102 | 105 | 109 | 104 | 96 | 82.7 | 61.4 | 100 | 107 | 97.1 | 104 | 94.2 | 97.6 | 112 | 102 | 98.6 | 101 | 104 | 102 | 101 | 110 | 97.1 | 106 | 99.8 | 106 | 105 | 104 | 107 | 105 | 114 |
| CC(O)(CS(=O)(=O)c1ccc(F)cc1)C(=O)Nc1ccc(C#N)c(C(F)(F)F)c1 (configuration not stated) [Bicalutamide] (100 nM) | 106 | 99.5 | 102 | 131 | 95.9 | 115 | 100 | 85 | 98.3 | 116 | 85.1 | 110 | 107 | 108 | 90.6 | 89.8 | 102 | 108 | 100 | 105 | 110 | 105 | 98.9 | 100 | 105 | 102 | 80.7 | 103 | 106 | 113 | 117 | 103 | 107 | 96.7 | 107 | 108 | 114 |
